In PMC7803991, “Prediction of pharmacological activities from chemical structures with graph convolutional neural networks” (Scientific Reports, 2021):
Counter-ions that a name gives are not always drawn.

Target: T1, serotonin transporter (SERT) (Homo sapiens, UniProt P31645)
T1 construct: gene SLC6A4
Assay: cell-based

T1 sequence (P31645 whole entry): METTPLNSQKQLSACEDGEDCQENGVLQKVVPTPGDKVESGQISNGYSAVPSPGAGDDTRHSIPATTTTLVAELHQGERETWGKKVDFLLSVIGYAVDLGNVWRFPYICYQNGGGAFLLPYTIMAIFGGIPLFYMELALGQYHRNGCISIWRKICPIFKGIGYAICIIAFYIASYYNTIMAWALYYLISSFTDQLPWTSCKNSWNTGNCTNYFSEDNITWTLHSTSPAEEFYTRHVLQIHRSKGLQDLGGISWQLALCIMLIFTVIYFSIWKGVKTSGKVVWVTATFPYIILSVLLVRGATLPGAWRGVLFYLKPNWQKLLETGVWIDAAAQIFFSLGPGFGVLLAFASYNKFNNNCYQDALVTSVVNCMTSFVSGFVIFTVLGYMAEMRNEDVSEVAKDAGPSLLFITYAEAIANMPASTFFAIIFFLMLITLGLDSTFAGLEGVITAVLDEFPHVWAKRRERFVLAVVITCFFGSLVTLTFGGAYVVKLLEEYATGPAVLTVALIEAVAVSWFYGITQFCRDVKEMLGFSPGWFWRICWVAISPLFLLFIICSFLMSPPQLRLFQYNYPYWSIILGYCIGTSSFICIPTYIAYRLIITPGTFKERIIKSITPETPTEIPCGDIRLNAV

Work on `Clc1ccc2sc(C3CCNCC3)nc2c1` [compound 1, 5-chloro-2-(piperidin-4-yl)-1,3-benzothiazole hydrochloride] yielded an IC50 of 6.24 nM.
